How the values were obtained:
Assay type in all cases: cell-based, human
RANTES = assay: RSV-induced RANTES secretion in A549 cells (ELISA); conditions: A549 cells
Procedure: (§1) Cell culture and infection of epithelial cells with RSV. A549, human alveolar type II-like epithelial cells (ATCC, Manassas, Va.), were maintained in F12K medium containing 10% (v/v) fetal bovine serum (FBS), 10 mM glutamine, 100 IU/ml penicillin and 100 μg/ml streptomycin. Small alveolar epithelial cells (SAE) were obtained from Clonetics (San Diego, Calif.) and grown according to the company instructions. Cell monolayers were infected with RSV at multiplicity of infection (MOI) of 1 (unless otherwise stated), as described (17). An equivalent amount of a 20% sucrose solution was added to uninfected A549 cells, as a control. For the antioxidant experiments, cells were pretreated with the antioxidants for one hour and then infected in the presence of the antioxidants. Since BHA was diluted in ethanol, equal amounts of ethanol were added to untreated cells, as a control. Total number of cells, cell viability and viral replication, following antioxidant treatment, were measured by trypan blue exclusion and by plaque assay, respectively. RANTES ELISA. Immunoreactive RANTES was quantitated by a double antibody ELISA kit (DuoSet, R&D Systems, Minneapolis, Minn.) following the manufacturer's protocol.

ROS = assay: H2O2-induced ROS production in A549 cells (DCF oxidation); conditions: 200 μM H2O2, 400 μM BHA
Procedure: Assesment of intracellular ROS generation. A549 cells were grown in 96-well tissue culture plates and infected with RSV, at 0.1, 0.5 and 1 multiplicity of infection (MOI). At different times post-infection, cells were washed with Hank's Balanced Salt Solution (HBSS) and loaded with 10 μM 2,7 dichlorofluorescein diacetate (DCF-DA) in HBSS medium containing 25 mM HEPES, pH 7.4, for 30 minutes at 37° C. The cells were then washed twice and fluorescence intensity was determined at 485 nm excitation and 590 nm emission, using an automated fluorescence reader (Flurocount, Hewlett-Packard Instruments, IL). For the experiments in which H2O2 was used as a stimulus for ROS production, cells were preloaded with […] DCF-DA for 30 minutes, washed and then fluorescence intensity was measured at different times following addition of H2O2. Measurements were performed in triplicate and results expressed as fluorescence mean±S.D. of n=3 independent experiments.

IRF-7 = assay: Western blot of IRF-7 in total cell lysates of RSV-infected A549 cells; conditions: whole cell extracts, RSV 12 hours, 400 μM
Procedure: Western Immunoblot. Total cell lysates and cytoplasmic and nuclear proteins were prepared as previously described, fractionated by SDS-PAGE and transferred to PVDF membrane (20). Membranes were blocked with 5% albumin in TBS-Tween and incubated overnight with a rabbit polyclonal antibody to IRF-1, -3 and -7 (Santa Cruz Biotech, Santa Cruz, Calif.). For secondary detection, a horseradish-coupled anti-rabbit or anti-mouse antibody was used in the enhanced chemiluminescence assay (Amersham Pharmacia Biotec, Arlington Heights, Ill.).

IRF-3 mRNA = assay: Northern blot of IRF-3 mRNA in RSV-infected A549 cells; conditions: data not shown
Procedure: Northern Blot. Total RNA was extracted from control and infected A549 cells by the acid guanidium thiocyanate-phenol chloroform method (18). Twenty micrograms of RNA were fractionated on a 1.2% agarose-formaldehyde gel, transferred to nylon membranes and hybridized to a radiolabeled RANTES, IRF-1, -3 and -7 cDNAs, as previously described (19). Hybridization temperature for all probes was 55° C. After washing, membranes were exposed for autoradiography using Kodak XAR film at −70° C. using intensifying screens. After exposure, membranes were stripped and rehybridized with a β-actin probe.

IRF-7 ISRE = assay: EMSA of IRF-7 ISRE binding complexes, nuclear extracts of RSV-infected A549 cells; conditions: all time points, 400 μM
Procedure: Electrophoretic mobility shift assay (EMSA): Nuclear extracts of uninfected and infected A549 cells were prepared using hypotonic/nonionic detergent lysis, as previously described (20). Proteins were normalized by protein assay (Protein Reagent, Bio-Rad, Hercules, Calif.) and used to bind to a duplex oligonucleotide corresponding to the IRF-1 gamma interferon activated sequence (GAS) and IRF-7 ISRE, whose sequences are shown below.
DNA-binding reactions contained 10-15 μg nuclear proteins, 5% glycerol, 12 mM HEPES, 80 mM NaCl, 5 mM DTT, 5 mM Mg2Cl, 0.5 mM EDTA, 1 μg of poly dI-dC and 40,000 cpm of ^32P-labeled double-stranded oligonucleotide in a total volume of 20 μl. The nuclear proteins were incubated with the probe for 15 minutes at room temperature and then fractionated by 4% nondenaturing polyacrylamide gels (PAGE) in 0.5× TBE buffer (22 mM Tris-HCl, 22 mM boric acid, 0.25 MM EDTA, pH 8), at 120 volts. After electrophoretic separation, gels were dried and exposed for autoradiography using Kodak XAR film at −70° C. using intensifying screens. In the gel mobility supershift, commercial antibodies against specific transcription factors were added to the binding reactions and incubated on ice for one hour prior to fractionation on 6% PAGE.

A549 cells = assay: Total number of cells and cell viability by trypan blue exclusion; conditions: 400 μM, data not shown
Procedure: as §1, with “respectively.” for “respectively. RANTES ELISA. Immunoreactive RANTES was quantitated by a double antibody ELISA kit (DuoSet, R&D Systems, Minneapolis, Minn.) following the manufacturer's protocol.”

COc1ccc(O)c(C(C)(C)C)c1 [BHA, butylated hydroxyanisol]
effectiveness in reducing RSV-induced RANTES secretion, compared among the antioxidants (RANTES): most effective
RSV-induced RANTES production (RANTES; 400 μM, 24 hours, ELISA): significantly block
H2O2-induced ROS production (ROS): almost completely inhibited
RSV-induced IRF-7 protein synthesis (IRF-7): almost completely abolished
IRF-3 mRNA level (IRF-3 mRNA): unaffected
binding of the RSV-inducible complexes to the IRF-7 ISRE probe (IRF-7 ISRE): greatly reduced
total cell number and viability (A549 cells): unchanged

Source: patent publication US6699459B2, “Methods of treating lung inflammation” (The Board of Regents of the University of Texas System, priority 2001, dated 2004)
